The target in assay [1] is Recombinant human Menin protein (2-610) / MLL polypeptide binding (Homo sapiens (Human), UniProt O00255). As to the kind of experiment: Menin and MLL protein binding at a molecular level (fluorescence polarization method). The note with it: inhibition of Menin / MLL polypeptide binding. From the text:
Example 3: Determination of the Activity of the Compounds of the Present Invention on Menin and MLL Protein Binding at a Molecular Level (Fluorescence Polarization Method)
1. Reagents, Materials and Instruments:
• Recombinant human Menin protein (2-610): ChemPartner, CP2021020801; • MLL polypeptide (6-FAM-Ahx-SG-40): GL Biochem, 865700; • Trizma® hydrochloride buffer solution (Tris): Sigma, T2194-1 L; • NaCl: Invitrogen, AM9760G; • TCEP: Sigma, 646547; • DMSO: Sigma, D4540; • 384-well plate: Corning, 4514; • Envision: PerkinElmer.
2. Preparation of Reaction Solutions
• 1) Buffer solution: 20 mL of Tris and 4 mL of NaCl were added respectively to 376 mL of ddH2O, with pH adjusted to 7.5, and TCEP was added before testing with a dilution ratio of 1:500. • 2) 5× test compounds: the test compound was subjected to gradient dilution with the buffer solution to 5-fold the reaction concentration, so that the final concentrations of the compound were 1.000, 0.333, 0.111, 0.037, 0.012, 0.004, 0.001 and 0.0005 μM, respectively. • 3) 2.5× Menin protein reaction solution: the Menin protein was diluted to 5 nM with the buffer solution. • 4) 2.5×MLL polypeptide reaction solution: the MLL polypeptide was diluted to 5 nM with the buffer solution.
1) Binding Reaction (20 μL System)
4 μL of 5× test compound was added to each reaction well of the 384-well plate, and the corresponding volume of 10% DMSO was added to the control wells. Except the control wells, 8 μL of Menin protein reaction solution was added to each well. The reaction solution was incubated at room temperature for 30 minutes, and then 8 μL of MLL polypeptide reaction solution was added to each well. The final concentrations of DMSO in the test compound wells and control wells were all 2%. The 384-well plate was sealed and incubated at room temperature for 30 minutes in the dark.
Three control groups were set up: • a blank control group only containing a buffer solution; • a negative control group only containing MLL polypeptide reaction solution; and • a positive control group containing Menin protein reaction solution and MLL polypeptide reaction solution.
The vertical polarization S value and the horizontal polarization P value (excitation wavelength was 480 nm, and emission wavelength was 535 nm) were measured with Envision.
Corrected S is the S value of the negative control group—the S value of the blank control group
Corrected P is the P value of the negative control group—the P value of the blank control group
(§1) • calculated by using software XL-Fit™ (version 5.3) supplied by ID Business Solutions (Guildford, UK), which is an additional software to Microsoft Excel.
(In fluorescence polarisation assays a small probe gives low polarisation when free and higher when bound to something large.)

Assay [2] relates to MV-4-11 cells (human acute myelogenous leukemia cell line carrying MLL-AF4 mutation). Nature of the assay: Cell proliferation assay, MV-4-11 (CellTiter-Glo). Type of assay: cell-based. To be noted: Homo sapiens, MV4-11, 72 h. The method, then: Example 4 Cell Proliferation Assay
MV-4-11 (ATCC, CRL-9591), a human acute myelogenous leukemia cell line carrying MLL-AF4 mutation. Cells were cultured in an IMDM medium containing 10% heat-inactivated fetal bovine serum (HIFBS) and supplemented with 50 μM β-mercaptoethanol.
2. Reagents, Materials and Instruments:
• IMDM culture solution: GIBCO, 12440-053; • HIFBS: GIBCO, 10100-147; • β-mercaptoethanol: Sigma, M3148; • CellTiter-Glo® 2.0 assay kit (CTG): Promega, G9243; • DMSO: Sigma, D4540; • 96-well cell culture plate: Corning, 3903; • Envision: PerkinElmer.
MV-4-11 cells were resuspended in a medium, added to a 96-well plate at a density of 3000 cells/well with a volume of 100 μL/well, and cultured in a cell incubator at 5% CO2 and 37° C. for 4 hours. The test compound subjected to gradient dilution with the medium was added to a cell culture plate, and the final concentrations of the compound were 1.100, 0.367, 0.122, 0.041, 0.014, 0.005, 0.002 and 0.001 μM, respectively. The corresponding volume of DMSO diluent was added to a blank control well, and the final concentrations of DMSO in the experimental group and control group were both 0.1%. The cell plate was placed in a cell incubator at 5% CO2 and 37° C. and cultured for 3 days.
On day 0 and day 3 of the treatment, 50 μL/well CTG reagent was added to the cell plate and shaken at room temperature in the dark for 10 min, and then the chemiluminescence value of each well was measured with Envision.
[formula] • wherein: • luminescence valuetest sample: the chemiluminescence value of a cell well treated with the test compound for 3 days. • luminescence valueday 0: the chemiluminescence value of a cell well at day 0. • luminescence valuecell well: the chemiluminescence value of a cell well not treated with the compound for 3 days.
as §1
On the technique in general: Cellular ATP, detected with luciferase, serves as a proxy for viable cell number.

Setting [3] is: MV-4-11 cells, 3 days treatment, CellTiter-Glo, read-out: GI50.

Structures are written as SMILES. Read-outs that look alike come from different tables or passages of the source.

A word on the IC50: it is the concentration that gives 50% inhibition. Usually GI50 stands for the concentration that inhibits growth by half.

Sequence of Recombinant human Menin protein (2-610) / MLL polypeptide binding (O00255 2-610): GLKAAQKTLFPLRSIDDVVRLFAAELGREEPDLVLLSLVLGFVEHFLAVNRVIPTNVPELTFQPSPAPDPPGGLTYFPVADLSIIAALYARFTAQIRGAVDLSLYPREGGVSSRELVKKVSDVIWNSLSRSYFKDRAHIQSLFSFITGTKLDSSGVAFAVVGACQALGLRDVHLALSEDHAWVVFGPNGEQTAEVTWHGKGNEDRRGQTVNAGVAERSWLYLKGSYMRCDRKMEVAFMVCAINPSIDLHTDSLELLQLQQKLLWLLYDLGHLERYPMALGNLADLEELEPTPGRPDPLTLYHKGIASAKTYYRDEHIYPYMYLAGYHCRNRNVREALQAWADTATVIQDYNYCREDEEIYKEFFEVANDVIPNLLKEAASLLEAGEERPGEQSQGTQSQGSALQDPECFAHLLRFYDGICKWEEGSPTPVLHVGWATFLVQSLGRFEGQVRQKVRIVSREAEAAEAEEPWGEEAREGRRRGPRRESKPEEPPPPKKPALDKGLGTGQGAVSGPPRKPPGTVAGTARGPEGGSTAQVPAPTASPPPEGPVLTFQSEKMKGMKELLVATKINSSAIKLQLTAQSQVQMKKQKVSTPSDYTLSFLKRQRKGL

For `CCN(C(=O)c1cc(F)ccc1Oc1nncnc1N1CC2(CCN(CC3CCN(C(=O)N(C)c4ccccn4)CC3)CC2)C1)C(C)C` [Compound 25], the IC50 in assay [1] was found to be 163 nM. Besides, the GI50 in assay [2] (setting [3]) came to 231 nM.
For `CCN(C(=O)c1cc(F)ccc1Oc1nncnc1N1CC2(CCN(CC3CCN(C(=O)NC4CC4)CC3)CC2)C1)C(C)C` [Compound 26, N-cyclopropyl-4-((2-(6-(2-(ethyl(isopropyl)carbamoyl)-4-fluorophenoxy)-1,2,4-triazin-5-yl)-2,7-diazaspiro[3.5]nonan-7-yl)methyl)piperidine-1-carboxamide], in assay [1], the IC50 worked out at 0.9 nM. This compound also returned a GI50 in assay [2] of 7 nM.
For `CCN(C(=O)c1cc(F)ccc1Oc1nncnc1N1CC2(CCN(CC3CCN(C(=O)NC)CC3)CC2)C1)C(C)C` [Compound 27], in assay [1], the IC50 is 5.3 nM. Further, the GI50 in assay [2] (setting [3]) was determined as 13 nM.
Regarding `CCN(C(=O)c1cc(F)ccc1Oc1nncnc1N1CC2(CCN(CC3CCN(C(=O)NC(C)C)CC3)CC2)C1)C(C)C` [Compound 29], the IC50 in assay [1] amounted to 2.5 nM. Moreover, the GI50 in assay [2] (setting [3]) came to 15 nM.
Turning to `CCN(C(=O)c1cc(F)ccc1Oc1nncnc1N1CC2(CCN(CC3CCN(C(=O)NC(C)(C)C)CC3)CC2)C1)C(C)C` [Compound 30], the IC50 in assay [1] was determined as 1.7 nM. In addition, the GI50 in assay [2] (setting [3]) turned out to be 5 nM.
For `O=C(NC1CC1)N1CCC(CN2CCC3(CC2)CN(c2ncnnc2Oc2ccc(F)cc2)C3)CC1` [Compound 31], the IC50 in assay [1] is 155 nM. Further, in assay [2] (setting [3]), the GI50 worked out at 284 nM.
With `CCN(C(=O)c1cc(F)ccc1Oc1nncnc1N1CC2(CCN(CC3CCN(C(=O)NC4CCC4)CC3)CC2)C1)C(C)C` [Compound 32], in assay [1], the IC50 turned out to be 1 nM. Further, the GI50 in assay [2] (setting [3]) turned out to be 4 nM.
For `CCN(C(=O)c1cc(F)ccc1Oc1nncnc1N1CC2(CCN(CC3CCN(C(=O)NC4COC4)CC3)CC2)C1)C(C)C` [Compound 33], in assay [1], the IC50 turned out to be 2.9 nM. For the same compound, the GI50 in assay [2] (setting [3]) was found to be 18 nM.
In the same order, the values of `CCN(C(=O)c1cc(F)ccc1Oc1nncnc1N1CC2(CCN(CC3CCN(C(=O)NCc4ccccc4)CC3)CC2)C1)C(C)C` [Compound 34] are 8.1 nM and 24 nM.
Take `CCN(C(=O)c1cc(F)ccc1Oc1nncnc1N1CC2(CCN(CC3CCN(C(=O)NCCOC)CC3)CC2)C1)C(C)C` [Compound 35]: the IC50 in assay [1] turned out to be 10.7 nM. The GI50 in assay [2] (setting [3]) came to 35 nM.
Consider `CCN(C(=O)c1cc(F)ccc1Oc1nncnc1N1CC2(CCN(CC3CCN(C(=O)Nc4ccccc4F)CC3)CC2)C1)C(C)C` [Compound 36, 4-((2-(6-(2-(ethyl(isopropyl)carbamoyl)-4-fluorophenoxy)-1,2,4-triazin-5-yl)-2,7-diazaspiro[3.5]nonan-7-yl)methyl)-N-(2-fluorophenyl)piperidine-1-carboxamide], for which the IC50 in assay [1] was 4.6 nM. In addition, in assay [2] (setting [3]), the GI50 came out at 16 nM.
On to `CCN(C(=O)c1cc(F)ccc1Oc1nncnc1N1CC2(CCN(CC3CCN(C(=O)Nc4ccccn4)CC3)CC2)C1)C(C)C` [Compound 37], for which the IC50 in assay [1] worked out at 13.7 nM. Besides, in assay [2] (setting [3]), the GI50 was 23 nM.
`CCN(C(=O)c1cc(F)ccc1Oc1nncnc1N1CC2(CCN(CC3CCN(c4ccc(C(F)(F)F)nn4)CC3)CC2)C1)C(C)C` [Compound 38, N-ethyl-5-fluoro-N-isopropyl-2-((5-(7-((1-(6-(trifluoromethyl)pyridazin-3-yl)piperidin-4-yl)methyl)-2,7-diazaspiro[3.5]nonan-2-yl)-1,2,4-triazin-6-yl)oxy)benzamide]: the IC50 in assay [1] came out at 1.7 nM. For the same compound, in assay [2] (setting [3]), the GI50 was determined as 2 nM.
Consider `CCN(C(=O)c1cc(F)ccc1Oc1nncnc1N1CC2(CCN(CC3CCN(C[C@@H](O)CC#N)CC3)CC2)C1)C(C)C` [Compound 39], for which the IC50 in assay [1] came out at 68.3 nM. Besides, the GI50 in assay [2] (setting [3]) turned out to be 97 nM.
The matching figures for `CCN(C(=O)c1cc(F)ccc1Oc1nncnc1N1CC2(CCN(CC3CCN(c4cnccn4)CC3)CC2)C1)C(C)C` [Compound 40]: 11.4 nM and 23 nM.
Turning to `CCN(C(=O)c1cc(F)ccc1Oc1nncnc1N1CC2(CCN(CC3CCN(c4cnc(Cl)nn4)CC3)CC2)C1)C(C)C` [Compound 41], in assay [1], the IC50 worked out at 3.1 nM. Also, in assay [2] (setting [3]), the GI50 is 8 nM.
In the case of `CCN(C(=O)c1cc(F)ccc1Oc1nncnc1N1CC2(CCN(CC3CCN(c4ccc(Br)c(=O)n4C)CC3)CC2)C1)C(C)C` [Compound 42], the IC50 in assay [1] was determined as 89.9 nM. Further, in assay [2] (setting [3]), the GI50 was found to be 37 nM.
For the compound `CCN(C(=O)c1cc(F)ccc1Oc1nncnc1N1CC2(CCN(CC3CCN(c4ccc5nccn5n4)CC3)CC2)C1)C(C)C` [Compound 43], in assay [1], the IC50 was determined as 6.4 nM. In addition, the GI50 in assay [2] (setting [3]) was 13 nM.
Regarding `CCN(C(=O)c1cc(F)ccc1Oc1nncnc1N1CC2(CCN(CC3CCN(c4ccc(C5CC5)nn4)CC3)CC2)C1)C(C)C` [Compound 44], in assay [1], the IC50 was determined as 4.3 nM. In addition, the GI50 in assay [2] (setting [3]) came out at 14 nM.
As to `CCN(C(=O)c1cc(F)ccc1Oc1nncnc1N1CC2(CCN(CC3CCN(c4cc(C(F)(F)F)cnn4)CC3)CC2)C1)C(C)C` [Compound 45], the IC50 in assay [1] stood at 3.9 nM. For the same compound, the GI50 in assay [2] (setting [3]) worked out at 7 nM.
The matching figures for `CCN(C(=O)c1cc(F)ccc1Oc1nncnc1N1CC2(CCN(CC3CCN(c4ccc(Cl)nn4)CC3)CC2)C1)C(C)C` [Compound 46]: 1.1 nM and 2 nM.
On to `CCN(C(=O)c1cc(F)ccc1Oc1nncnc1N1CC2(CCN(CC3CCN(c4ccc(C#N)nn4)CC3)CC2)C1)C(C)C` [Compound 47], for which the IC50 in assay [1] was found to be 2.6 nM. Moreover, the GI50 in assay [2] (setting [3]) came to 3 nM.
For `CCN(C(=O)c1cc(F)ccc1Oc1nncnc1N1CC2(CCN(CC3CCN(c4cc(C#N)cnn4)CC3)CC2)C1)C(C)C` [Compound 48], in assay [1], the IC50 was found to be 4.7 nM. Also, in assay [2] (setting [3]), the GI50 is 15 nM.
Regarding `CCN(C(=O)c1cc(F)ccc1Oc1nncnc1N1CC2(CCN(CC3CCN(c4cnc(C#N)cn4)CC3)CC2)C1)C(C)C` [Compound 49], the IC50 in assay [1] amounted to 18.5 nM. Also, in assay [2] (setting [3]), the GI50 came out at 24 nM.
In the case of `CCN(C(=O)c1cc(F)ccc1Oc1nncnc1N1CC2(CCN(CC3CCN(c4ccc(C#N)cn4)CC3)CC2)C1)C(C)C` [Compound 50], the IC50 in assay [1] worked out at 5.4 nM. Also, in assay [2] (setting [3]), the GI50 stood at 7 nM.
The matching figures for `CCN(C(=O)c1cc(F)ccc1Oc1nncnc1N1CC2(CCN(CC3CCN(c4ccc(C#N)cc4)CC3)CC2)C1)C(C)C` [Compound 51]: 6.5 nM and 9 nM.
With `CCN(C(=O)c1cc(F)ccc1Oc1nncnc1N1CC2(CCN(CC3CCN(c4cc(C(N)=O)ccn4)CC3)CC2)C1)C(C)C` [Compound 52], the IC50 in assay [1] turned out to be 0.9 nM. Moreover, the GI50 in assay [2] (setting [3]) amounted to 3 nM.
Consider `CCN(C(=O)c1cc(F)ccc1Oc1nncnc1N1CC2(CCN(CC3(NCCOC)CC3)CC2)C1)C(C)C` [Compound 53], for which the IC50 in assay [1] was found to be 99 nM. In addition, in assay [2] (setting [3]), the 50% growth inhibitory concentration (GI50) was determined as 87 nM.
As for `CCN(C(=O)c1cc(F)ccc1Oc1nncnc1N1CC2(CCN(CC3CCN(c4ncccc4C(N)=O)CC3)CC2)C1)C(C)C` [Compound 54], the IC50 in assay [1] came out at 15.8 nM. Besides, in assay [2] (setting [3]), the GI50 was found to be 21 nM.

For the origin of these results see patent US20260055108A1, “TRIAZINE COMPOUNDS AND USES THEREOF” (HUTCHMED LIMITED, priority 2022, published 2026).
